The source of these data is patent US4788188A, “Quinolylglycinamide derivatives, the process for preparation thereof and their therapeutic application as psychotropic drugs” (Sanofi (S.A.), priority 1985, dated 1988).

The target of one data set is benzodiazepine receptors. The experiment in a line: Affinity for benzodiazepine receptors: inhibition of specific binding of [3H]flunitrazepam (WASTEK et al., modified). Set-up: species or system rats. Particulars: 50% inhibition of specific binding of [3H]flunitrazepam, rat brain membranes. As to the method: This study was performed according to the technique of WASTEK et al., (Europ. J. Pharmacol., 1978, 50, 445-447) slightly modified.
Rats are sacrificed by decapitation, and the brain is removed, ground, suspended, centrifuged and resuspended.
Samples of this suspension are incubated in the presence of [^3 H]flunitrazepam, alone or in the presence of increasing concentrations of the test compound.
The radioactivity bound on the membranes is then determined by liquid scintillation.
The concentration of product which 50% inhibits the specific binding of [^3 H]flunitrazepam (IC50) is thereby determined.

The next data set concerns food neophobia. Kind of data set: Anxiolytic activity: food neophobia test. The class given is in vivo, mice. Particulars: 30 minutes after treatment. As to the method:
This activity was studied by the food neophobia test. In effect, a pronounced inhibition of the feed intake can be obtained in mice when both the food and the enclosure are unfamiliar to the aninal (R. J. STEPHENS, Brit. J. Pharmacol., 1973, 47, 145 P). All anxiolytics specifically counteract neophobia phenomena.
30 minutes after oral or subcutaneous treatment with the test derivatives and the reference products, the mice, fasted for 16 to 20 hours, are isolated in a translucent enclosure and placed in the presence of an unfamiliar food for 5 minutes.
The amounts consumed are evaluated in proportion to the weight of the animal.
In each batch, the mean consumption and also the percentage variation relative to the control batch are calculated in this manner.

A further data set has as its system pentetrazole seizures. Kind of data set: Anticonvulsant activity: protection against pentetrazole seizures (EVERETT and RICHARDS). The class given is in vivo, mice. Particulars: Mus musculus, po, 0.5 h, pentetrazole 125 mg/kg subcutaneously, no tonic seizures during 30 minutes, 95% confidence limits (FINNEY), read-out: ED50 (Confidence interval). The procedure:
The protective effect produced by the compound of the inventon against pentetrazole seizures was studied.
This test was carried out according to the method of EVERETT and RICHARDS (J. Pharm. Exp. Ther., 1944, 81, 402-407). The test products and reference products were administered orally (suspended in gum arabic) to batches of 10 mice, 30 minutes […] pentetrazole (125 mg/kg subcutaneously).

Data set [1] can be described thus: Hypnotic activity (method of JANSEN). Particulars: 95% confidence interval (FINNEY); for ED50: Mus musculus, ip, read-out: 50% hypnotic dose (confidence interval). It counts as in vivo, mice. As to the method:
The hypnotic activity of the compounds of the present invention was assessed by the method of JANSEN (J. Med. Pharm. Chem., 1959, 1, 281).
After treatment i.p., each mouse is carefully placed on its back. […] In each batch (10 mice per dose), the percentage of sleeping animals is noted. The 50% hypnotic dose and its 95% confidence interval were calculated according to FINNEY's (1971) method.

Data set [2] can be described thus: Hypnotic activity (method of JANSEN). It counts as in vivo, mice. Particulars: 95% confidence interval (FINNEY); for ED50: Mus musculus, iv, read-out: 50% hypnotic dose (confidence interval); for 50% hypnotic dose (confidence interval): i.v.
Data set [3] in a line: Acute toxicity in mice (oral). Particulars: mouse, in vivo, oral administration. The source says:
The acute, chronic, sub-chronic and delayed toxicities were dealt with in this study. Performed on various animal species, the trials brought out the low toxicity and good tolerability of the derivatives of the invention.

The conditions of data set [4]: comparison, L. PIERI et al., Arzneim. Forsch., 1981; route not given; cited from earlier work.

Read-outs that look alike come from different tables or passages of the source.

Take `CCN(CC)C(=O)CNc1c(C(=O)O)cnc2ccc(C)cc12` [Derivative 44, 2-(3-Carboxy-6-methyl-4-quinolyl)amino-N,N-diethylacetamide]: the half-maximal inhibitory concentration (IC50) (in general, the point on the concentration scale where inhibition reaches its midpoint) on benzodiazepine receptors came to 46 nM. Besides, the “Percentage increase (food consumption relative to control batch)” value with food neophobia (dose 32 mg/kg, SC) is 50%.
As to `CCCC(C)(COC(N)=O)COC(N)=O` [Meprobamate, reference compound], the “Percentage increase (food consumption relative to control batch)” value with food neophobia (dose 60 mg/kg, PO) was 95%. The ED50 with pentetrazole seizures is 36 mg/kg.
In the case of `CCCN(CCC)C(=O)CN(C)c1c(C(=O)OCC)cnc2ccc(Cl)cc12` [Derivative 59, [N'-(3-Ethoxycarbonyl-6-chloro-4-quinolyl)-N'-methylamino]-N,N-dipropylacetamide], the “Percentage increase (food consumption relative to control batch)” value with food neophobia (dose 32 mg/kg, PO) is reported as 146%. For the same molecule, in the data set with pentetrazole seizures, the ED50 was found to be 16 mg/kg.
Molecule `CCOC(=O)c1cnc2ccc(C(F)(F)F)cc2c1NCC(=O)N(CC)CC` [Derivative 4, 2-(3-Ethoxycarbonyl-6-trifluoromethyl-4-quinolyl)amino-N,N-diethylacetamide] yielded an IC50 at benzodiazepine receptors of 97 nM. Also, the ED50 was found to be 27 mg/kg in data set [1] and 5 mg/kg in data set [2].
`CNC1=Nc2ccc(Cl)cc2C(c2ccccc2)=[N+]([O-])C1` [Chlordiazepoxide, chlordiazepoxide, reference compound]: the IC50 on benzodiazepine receptors was 950 nM. Further, the “Percentage increase (food consumption relative to control batch)” value with food neophobia (dose 16 mg/kg, PO) was found to be 73%. Further, in the data set on pentetrazole seizures, the ED50 amounted to 7 mg/kg.
Take `CCOC(=O)c1cnc2ccc(Cl)cc2c1NCC(=O)N(CC)CC` [Derivative 1, 2-(3-Ethoxycarbonyl-6-chloro-4-quinolyl)amino-N,N-diethylacetamide]: on benzodiazepine receptors, the IC50 came to 85 nM. For the same molecule, the LD50 (usually the dose at which mortality reaches 50%) in data set [3] is 1800 mg/kg. In addition, the ED50 in the data set on pentetrazole seizures worked out at 49 mg/kg.
`CCCN(CCC)C(=O)CNc1c(C(=O)OCC)cnc2ccc(Cl)cc12` [Derivative 12, 2-(3-Ethoxycarbonyl-6-chloro-4-quinolyl)amino-N,N-dipropylacetamide] showed an IC50 at benzodiazepine receptors of 16 nM. The “Percentage increase (food consumption relative to control batch)” value in the data set with food neophobia (dose 32 mg/kg, PO) is reported as 75%. Also, in the data set on pentetrazole seizures, the ED50 stood at 10 mg/kg.
On to `CCOC(=O)c1cnc2ccc(OC)cc2c1NCC(=O)N(CC)CC` [Derivative 3, 2-(3-Ethoxycarbonyl-6-methoxy-4-quinolyl)amino-N,N-diethylacetamide], for which, at benzodiazepine receptors, the IC50 stood at 55 nM. For the same molecule, the ED50 in data set [1] turned out to be 27 mg/kg; in data set [2], 7 mg/kg. Further, the LD50 in data set [3] was 1650 mg/kg.
In the case of `CCOC(=O)c1cnc2ccc(OCC)cc2c1NCC(=O)N1CCCCC1` [Derivative 33, 1-{2-[(3-Ethoxycarbonyl-6-ethoxy-4-quinolyl)amino]acetyl}piperidine], at benzodiazepine receptors, the IC50 came to 54 nM. Also, the ED50 turned out to be 15 mg/kg in data set [1] and 5 mg/kg in data set [2].
Turning to `CCOC(=O)c1cnc2ccc(OCC)cc2c1NCC(=O)N(CC)CC` [Derivative 8], the IC50 at benzodiazepine receptors worked out at 133 nM. The ED50 in data set [1] was found to be 18 mg/kg; in data set [2], 5 mg/kg.
For `CCCN(CCC)C(=O)CNc1c(C(=O)OCC)cnc2ccc(Cl)cc12` [12 (Phosphate)], in data set [1], the ED50 amounted to 38 mg/kg. For the same molecule, in data set [2], the “50% hypnotic dose (confidence interval)” value is given as 2 (1-4) mg/kg.
As to `CCCN(CCC)C(=O)CNc1c(C(=O)OCC)cnc2ccc(Br)cc12` [Derivative 17, 2-(3-Ethoxycarbonyl-6-bromo-4-quinolyl)amino-N,N-dipropylacetamide], on benzodiazepine receptors, the IC50 came to 8 nM. For the same molecule, the “Percentage increase (food consumption relative to control batch)” value with food neophobia (dose 32 mg/kg, SC) amounted to 75%. Further, in the data set on pentetrazole seizures, the ED50 came out at 18 mg/kg.
For `CCOC(=O)c1cnc2ccc(Cl)cc2c1N(C)CC(=O)N(CC)CC` [Derivative 58, [N'-(3-Ethoxycarbonyl-6-chloro-4-quinolyl)-N'-methylamino]-N,N-diethylacetamide], in the data set with food neophobia (dose 64 mg/kg, SC), the “Percentage increase (food consumption relative to control batch)” value was 80%. For the same molecule, the ED50 in the data set with pentetrazole seizures was 44 mg/kg.
Regarding `CCCC(C)C1(CC)C(=O)NC(=S)NC1=O` (stereo not shown) [thiopental sodium], in data set [4], the 50% hypnotic dose was 17 mg/kg.
On to `CCN(CC)C(=O)CNc1c(C(=O)O)cnc2ccc(Cl)cc12` [Derivative 43, 2-(3-Carboxy-6-chloro-4-quinolyl)amino-N,N-diethylacetamide], for which, on benzodiazepine receptors, the IC50 was found to be 7 nM. For the same molecule, the “Percentage increase (food consumption relative to control batch)” value in the data set on food neophobia (dose 64 mg/kg, SC) is recorded as 75%. Further, the LD50 in data set [3] amounted to 2200 mg/kg.
With `CCOC(=O)c1cnc2ccc(Cl)cc2c1NCC(=O)N1CCCC(C)C1` (stereo not shown) [Derivative 38, 1-{2-[(3-Ethoxycarbonyl-6-chloro-4-quinolyl)amino]acetyl}-3-methylpiperidine], on benzodiazepine receptors, the IC50 is 65 nM. Also, the figures for the ED50 (in data set [1]; in data set [2]; in the data set with pentetrazole seizures) were 28 mg/kg, 9 mg/kg and 46 mg/kg, respectively.
At benzodiazepine receptors, `CCCN(CCC)C(=O)CNc1c(C(=O)OCC)cnc2ccc(OC)cc12` [Derivative 14, 2-(3-Ethoxycarbonyl-6-methoxy-4-quinolyl)amino-N,N-dipropylacetamide] showed an IC50 of 17 nM. Further, the values for the ED50 (in data set [1]; in data set [2]; in the data set on pentetrazole seizures) were 25 mg/kg, 5 mg/kg and 40 mg/kg, respectively.
`CCCN(CCC)C(=O)CNc1c(C(=O)OCC)cnc2ccc(C)cc12.Cl` [Derivative 13, 2-(3-Ethoxycarbonyl-6-methyl-4-quinolyl)amino-N,N-dipropylacetamide hydrochloride] had an IC50 on benzodiazepine receptors of 25 nM. Moreover, in the data set with food neophobia (dose 16 mg/kg, PO), the “Percentage increase (food consumption relative to control batch)” value was 75%. For the same molecule, the ED50 in the data set with pentetrazole seizures was found to be 25 mg/kg.
In the case of `CCCN(CCC)C(=O)CNc1c(C(=O)OCC)cnc2ccc(Cl)cc12` [12 (Sulphate)], the figures for the “50% hypnotic dose (confidence interval)” value in data set [1] (i.p.) and in data set [2] were 30 (14-39) mg/kg and 6 (4-15) mg/kg, respectively.
In turn, `CN1C(=O)CN=C(c2ccccc2)c2cc(Cl)ccc21` [Diazepam, diazepam, reference compound] registered an IC50 at benzodiazepine receptors of 10 nM. For the same molecule, in the data set with food neophobia (dose 4 mg/kg, PO), the “Percentage increase (food consumption relative to control batch)” value was found to be 80%.
On benzodiazepine receptors, `CCOC(=O)c1cnc2ccc([N+](=O)[O-])cc2c1NCC(=O)N(CC)CC` [Derivative 5, 2-(3-Ethoxycarbonyl-6-nitro-4-quinolyl)amino-N,N-diethylacetamide] registered an IC50 of 97 nM. Further, the ED50 came to 25 mg/kg in data set [1], 9 mg/kg in data set [2] and 50 mg/kg with pentetrazole seizures.
In the case of `Cc1ncc2n1-c1ccc(Cl)cc1C(c1ccccc1F)=NC2` [midazolam], the 50% hypnotic dose in data set [4] is reported as 23 mg/kg.
Molecule `CCCN(CCC)C(=O)CNc1c(C(=O)O)cnc2ccc(Cl)cc12` [Derivative 46, 2-(3-Carboxy-6-chloro-4-quinolyl)amino-N,N-dipropylacetamide] returned an IC50 on benzodiazepine receptors of 1 nM. Besides, the “Percentage increase (food consumption relative to control batch)” value in the data set with food neophobia (dose 16 mg/kg, SC) was 75%.
